The values that follow come from patent US10961238B2, “Modulators of hedgehog (Hh) signaling pathway” (E-THERAPEUTICS PLC, priority 2016, dated 2021).

The subject of this assay is C3H10T1/2 cells. Kind of assay: C3H assay: differentiation of C3H10T1/2 cells by mSHH, measurement of alkaline phosphatase. The note with it: C3H10T1/2 cells stimulated with mSHH for 72 hours, alkaline phosphatase activity, read-out: IC50 Ranges. It counts as cell-based, mouse.

Molecules are shown by their SMILES. Like-named read-outs stand apart in the source and are kept apart here.

By IC50 is commonly meant the midpoint of a concentration-inhibition curve. On to `CN(C(=O)N1CC(S(=O)(=O)N2CCC(c3ccc(C#N)cc3)CC2)C1)C1CC1` [Compound 350, 3-[4-(4-cyanophenyl)piperidin-1-yl]sulfonyl-N-cyclopropyl-N-methylazetidine-1-carboxamide], for which the IC50 (Mus musculus, C3H 10T1/2) was in the range of 1000 to 10000 nM.
In the case of `N#Cc1ccc(C2CCN(S(=O)(=O)C3CN(C(=O)CC(O)(C(F)(F)F)C(F)(F)F)C3)CC2)cc1` [Compound 351], the concentration for half-maximal inhibition (IC50) (Mus musculus, C3H 10T1/2) is 100 to 1000 nM.
On to `CC(C)(C)NC(=O)N1CC(S(=O)(=O)N2CCC(c3ccc(C#N)cc3)CC2)C1` [Compound 352, N-tert-butyl-3-[4-(4-cyanophenyl)piperidin-1-yl] sulfonylazetidine-1-carboxamide], for which, where the note is “Mus musculus, C3H 10T1/2”, the IC50 lay within 100 to 1000 nM.
On to `O=S(=O)(C1CN(Cc2ccccc2OC(F)F)C1)N1CCC(c2ccccc2)CC1` [Compound 353, 1-[1-[[2-(difluoromethoxy)phenyl]methyl]azetidin-3-yl]sulfonyl-4-phenylpiperidine], for which the half-inhibitory concentration (IC50) (Mus musculus, C3H 10T1/2) was 1000 to 10000 nM.
Take `Cc1ccc(C2CCN(S(=O)(=O)C3CN(C(=O)OC(C)(C)C)C3)CC2)c(C)c1` [Compound 354, tert-butyl 3-[4-(2,4-dimethylphenyl)piperidin-1-yl]sulfonylaze-tidine-1-carboxylate]: the IC50 (Mus musculus, C3H 10T1/2) fell in the range of 1000 to 10000 nM.
Still for that read-out and setting: with `O=C(NC1(C(F)(F)F)CC1)N1CC(S(=O)(=O)N2CCC(c3c[nH]c4cnccc34)CC2)C1` [Compound 355, 3-[4-(1H-pyrrolo[2,3-c]pyridin-3-yl)piperidin-1-yl]sulfonyl-N-[1-(trifluoromethyl)cyclopropyl] azetidine-1-carboxamide] the figure was 1000 to 10000 nM.
Turning to `O=S(=O)(C1CN(c2ccccn2)C1)N1CCC(c2c[nH]c3cccnc23)CC1` [Compound 356, 3-[1-(1-pyridin-2-ylazetidin-3-yl)sulfonylpiper-idin-4-yl]-1H-pyrrolo[3,2-b]pyridine], the half-maximal inhibitory concentration (IC50) (Mus musculus, C3H 10T1/2) was 1000 to 10000 nM.
On to `CC(C)(C)OC(=O)N[C@H]1C[C@H](S(=O)(=O)N2CCC(c3c[nH]c4ncccc34)CC2)C1` [Compound 357, trans-tert-butyl-N-[3-[[4-(1H-pyrrolo[2,3-b]pyridin-3-yl)-1-piperidyl]sulfonyl]cyclobutyl]carbamate], for which the IC50 (Mus musculus, C3H 10T1/2) was in the range of 10 to 100 nM.
Consider `CC(C)(C)OC(=O)N[C@H]1C[C@@H](S(=O)(=O)N2CCC(c3c[nH]c4ncccc34)CC2)C1` [Compound 358, cis-tert-butyl-N-[3-[[4-(1H-pyrrolo[2,3-b]pyridin-3-yl)-1-piperidyl]sulfonyl]cyclobutyl]carbamate], for which, where the note is “Mus musculus, C3H 10T1/2”, the half-inhibitory concentration (IC50) is 10 to 100 nM.
As to `O=C(Nc1ccc(Cl)cc1Cl)N1CC(S(=O)(=O)N2CCC(c3coc4cccnc34)CC2)C1` [Compound 359, N-(2,4-dichlorophenyl)-3-(4-furo[3,2-b]pyridin-3-ylpiperidin-1-yl)sulfonylaze-tidine-1-carboxamide], the concentration for half-maximal inhibition (IC50) (Mus musculus, C3H 10T1/2) lay within 10 to 100 nM.
For `Cc1c(F)cccc1NC(=O)N1CC(S(=O)(=O)N2CCC(c3coc4cccnc34)CC2)C1` [Compound 360, N-(3-fluoro-2-methylphenyl)-3-(4-furo[3,2-b]pyridin-3-ylpiperidin-1-yl)sulfonylaze-tidine-1-carboxamide], the IC50 (Mus musculus, C3H 10T1/2) fell in the range of 10 to 100 nM.
Turning to `O=C(NC1(C(F)(F)F)CC1)[C@H]1C[C@@H](S(=O)(=O)N2CCC(c3coc4cccnc34)CC2)C1` [Compound 361, cis-3-(4-furo[3,2-b]pyridin-3-ylpiperidin-1-yl)sulfonyl-N-[1-(trifluoromethyl)cyclopropyl] cyclobutane-1-carboxamide], the IC50 (Mus musculus, C3H 10T1/2) was in the range of 10 to 100 nM.
As to `CC(C)(C)NC(=O)[C@H]1C[C@@H](S(=O)(=O)N2CCC(c3coc4cccnc34)CC2)C1` [Compound 362, cis-N-tert-butyl-3-(4-furo[3,2-b]pyridin-3-ylpiperidin-1-yl) sulfonylcyclobutane-1-carboxamide], the IC50 (Mus musculus, C3H 10T1/2) lay within 10 to 100 nM.
With `Cc1c(F)cccc1NC(=O)N1CC(S(=O)(=O)N2CCC(c3c[nH]c4ncccc34)CC2)C1` [Compound 363, N-(3-fluoro-2-methylphenyl)-3-[4-(1H-pyrrolo[2,3-b]pyridin-3-yl)piperidin-1-yl]sulfonylaze-tidine-1-carboxamide], the 50% inhibitory concentration (IC50) (Mus musculus, C3H 10T1/2) fell in the range of 10 to 100 nM.
On to `Cc1ccccc1NC(=O)N1CC(S(=O)(=O)N2CCC(c3c[nH]c4ncccc34)CC2)C1` [Compound 364, N-(2-methylphenyl)-3-[4-(1H-pyrrolo[2,3-b]pyridin-3-yl)piperidin-1-yl]sulfonylaze-tidine-1-carboxamide], for which the 50% inhibitory concentration (IC50) (Mus musculus, C3H 10T1/2) lay in the range of 10 to 100 nM.
On to `Cc1ccc(F)cc1NC(=O)N1CC(S(=O)(=O)N2CCC(c3coc4cccnc34)CC2)C1` [Compound 365, N-(5-fluoro-2-methylphenyl)-3-(4-furo[3,2-b]pyridin-3-ylpiperidin-1-yl)sulfonylaze-tidine-1-carboxamide], for which the concentration for half-maximal inhibition (IC50) (Mus musculus, C3H 10T1/2) fell in the range of 10 to 100 nM.
As for `Cc1ccc(F)cc1NC(=O)N1CC(S(=O)(=O)N2CCC(c3ccc(C#N)cc3)CC2)C1` [Compound 366, 3-[4-(4-cyanophenyl)piperidin-1-yl]sulfonyl-N-(5-fluoro-2-methylphenyl) azetidine-1-carboxamide], the half-maximal inhibitory concentration (IC50) (Mus musculus, C3H 10T1/2) was 100 to 1000 nM.
Take `Cc1ccc(F)cc1NC(=O)N1CC(S(=O)(=O)N2CCC(c3ccc(F)cc3)CC2)C1` [Compound 367, N-(5-fluoro-2-methylphenyl)-3-[4-(4-fluorophenyl)piperidin-1-yl]sulfonylaze-tidine-1-carboxamide]: the half-maximal inhibitory concentration (IC50) (Mus musculus, C3H 10T1/2) was 1000 to 10000 nM.
On to `Cc1ccc2c(C3CCN(S(=O)(=O)C4CN(C(=O)Nc5cc(F)ccc5C)C4)CC3)c[nH]c2n1` [Compound 368, N-(5-fluoro-2-methylphenyl)-3-[4-(6-methyl-1H-pyrrolo[2,3-b]pyridin-3-yl)piperidin-1-yl]sulfonylaze-tidine-1-carboxamide], for which the half-maximal inhibitory concentration (IC50) (Mus musculus, C3H 10T1/2) lay in the range of 1000 to 10000 nM.
Regarding `Cc1ccccc1NC(=O)N1CC(S(=O)(=O)N2CCC(c3coc4cccnc34)CC2)C1` [Compound 369, 3-(4-furo[3,2-b]pyridin-3-ylpiperidin-1-yl)sulfonyl-N-(2-methylphenyl) azetidine-1-carboxamide], where the note is “Mus musculus, C3H 10T1/2”, the half-inhibitory concentration (IC50) is 100 to 1000 nM.
As to `CC(C)(C)NC(=O)N1CC(S(=O)(=O)N2CCC(c3coc4cccnc34)CC2)C1` [Compound 370, N-tert-butyl-3-(4-furo[3,2-b]pyridin-3-ylpiperidin-1-yl)sulfonylaze-tidine-1-carboxamide], the IC50 (Mus musculus, C3H 10T1/2) was in the range of 10 to 100 nM.
With `CC[C@@H](C)OC(=O)N1CC(S(=O)(=O)N2CCC(c3coc4cccnc34)CC2)C1` [Compound 371, [(2R)-butan-2-yl]3-(4-furo[3,2-b]pyridin-3-ylpiperidin-1-yl)sulfonylaze-tidine-1-carboxylate], the half-maximal inhibitory concentration (IC50) lay in the range of 10 to 100 nM.
With `CC1(C)COCN1C(=O)N1CC(S(=O)(=O)N2CCC(c3coc4cccnc34)CC2)C1` [Compound 372, (4,4-dimethyl-1,3-oxazolidin-3-yl)-[3-(4-furo[3,2-b]pyridin-3-ylpiperidin-1-yl)sulfonylaze-tidin-1-yl]methanone], the IC50 is 10 to 100 nM.
With `CC(C)[C@@H](CO)NC(=O)N1CC(S(=O)(=O)N2CCC(c3coc4cccnc34)CC2)C1` [Compound 373, 3-(4-furo[3,2-b]pyridin-3-ylpiperidin-1-yl)sulfonyl-N-[(2S)-1-hydroxy-3-methylbutan-2-yl]azetidine-1-carboxamide], the IC50 (Mus musculus, C3H 10T1/2) was 10 to 100 nM.
In the case of `C[C@@H]1CN(C(=O)N2CC(S(=O)(=O)N3CCC(c4coc5cccnc45)CC3)C2)C[C@H](C)O1` [Compound 374, [(2R,6S)-2,6-dimethylmorpholin-4-yl]-[3-(4-furo[3,2-b]pyridin-3-ylpiperidin-1-yl)sulfonylazetidin-1-yl]methanone], under “Mus musculus, C3H 10T1/2”, the IC50 is less than 10 nM.
On the same count and under the same terms, for `CC(C)(C)C(=O)CN1CC(S(=O)(=O)N2CCC(c3ccc(F)cc3)CC2)C1` [Compound 375, 1-[3-[4-(4-fluorophenyl)piperidin-1-yl]sulfonylaze-tidin-1-yl]-3,3-dimethylbutan-2-one] the value was 100 to 1000 nM; for `CC(C)(C)C(=O)CN1CC(S(=O)(=O)N2CCC(c3coc4cccnc34)CC2)C1` [Compound 376, 1-[3-(4-furo[3,2-b]pyridin-3-ylpiperidin-1-yl)sulfonylazetidin-1-yl]-3,3-dimethylbutan-2-one], 10 to 100 nM.
Still for that read-out and setting: for `O=C(CC1CCOCC1)N1CC(S(=O)(=O)N2CCC(c3coc4cccnc34)CC2)C1` [Compound 377, 1-[3-[(4-furo[3,2-b]pyridin-3-yl-1-piperidyl)sulfonyl]azetidin-1-yl]-2-tetrahydropyran-4-yl-ethanone] the value was 10 to 100 nM; for `CC(C)(C)C(=O)CN1CC(S(=O)(=O)N2CCC(c3ccc(C#N)cc3)CC2)C1` [Compound 378, 4-[1-[1-(3,3-dimethyl-2-oxobutyl)azetidin-3-yl]sulfonylpiperidin-4-yl]benzonitrile], 100 to 1000 nM; for `O=C(CC(O)(C(F)(F)F)C(F)(F)F)N1CC(S(=O)(=O)N2CCC(c3c[nH]c4cccnc34)CC2)C1` [Compound 379, 4,4,4-trifluoro-3-hydroxy-1-[3-[4-(1H-pyrrolo[3,2-b]pyridin-3-yl)piperidin-1-yl]sulfonylaze-tidin-1-yl]-3-(trifluoromethyl) butan-1-one], 10 to 100 nM.
For the compound `Cc1ccc2c(C3CCN(S(=O)(=O)C4CN(C(=O)OC5CCOCC5)C4)CC3)c[nH]c2n1` [Compound 380, oxan-4-yl 3-[4-(6-methyl-1H-pyrrolo[2,3-b]pyridin-3-yl)piperidin-1-yl]sulfonylaze-tidine-1-carboxylate], the IC50 (Mus musculus, C3H 10T1/2) is less than 10 nM.
With `Cc1ccc2c(C3CCN(S(=O)(=O)C4CN(C(=O)N5C[C@@H](C)O[C@@H](C)C5)C4)CC3)c[nH]c2n1` [Compound 381, [cis-2,6-dimethylmorpholin-4-yl]-[3-[4-(6-methyl-1H-pyrrolo[2,3-b]pyridin-3-yl)piperidin-1-yl]sulfonylazetidin-1-yl]methanone], the IC50 (Mus musculus, C3H 10T1/2) was less than 10 nM.
Take `Cc1cccc(C)c1NC(=O)N1CC(S(=O)(=O)N2CCC(c3coc4cccnc34)CC2)C1` [Compound 382, N-(2,6-dimethylphenyl)-3-(4-furo[3,2-b]pyridin-3-ylpiperidin-1-yl)sulfonylaze-tidine-1-carboxamide]: where the note is “Mus musculus, C3H 10T1/2”, the 50% inhibitory concentration (IC50) was in the range of 10 to 100 nM.
As for `O=C(Nc1cccc(F)c1)N1CC(S(=O)(=O)N2CCC(c3coc4cccnc34)CC2)C1` [Compound 383, N-(3-fluorophenyl)-3-(4-furo[3,2-b]pyridin-3-ylpiperidin-1-yl)sulfonylaze-tidine-1-carboxamide], under “Mus musculus, C3H 10T1/2”, the IC50 fell in the range of 10 to 100 nM.
